# Assay results: the supplement of paper PMC11208160
# Assay: recombinant UMI read abundance after kanamycin selection (control-corrected) (log10(CPM+1)); higher = more efficient recombination; extreme values may be limits of the assay; sequences stand for … in AGTGCAGAGAAAATCGGCCAGTTTTCTCTGCCTGCAGTCCGCATGCCGTGGGACCCCTTGGGTTCTAACCTGTTGCCTAGATTTATGCAGCGGACTGCCTTTCTCCCAAAGTGATAAACCGG…AGGTTGGTTTCACT; site = the 11-nt donor
# In short: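 Each donor and donor-binding-loop pair was tracked by a 12-nt UMI on a plasmid carrying a promoterless kanamycin gene. With a second plasmid supplying a fixed target and T7-inducible IS621 bridge recombinase, the pool was plated in Escherichia coli on IPTG (0.07 mM) plus kanamycin or unselected. Sequencing of recombinant UMIs across the donor–target junction gave counts expressed as log10(CPM+1) after replicate averaging and control-derived scaling.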
row,Sequence,recombinant UMI read abundance (log10)
1,CACTATGCATGGACCGGTTTTCCCGGTAATCCGTATTTGCG (site CACTATGCTCG),1.67
2,CACTCCCCATGGACCGGTTTTCCCGGTAATCCGTATTTGAC (site CACTCCCCTGT),1.54
3,CACTCCTCATGGACCGGTTTTCCCGGTAATCCGTATTTGAC (site CACTCCTCTGA),2.16
4,CACTCCTCATGGACCGGTTTTCCCGGTAATCCGTATTTGAC (site CACTCCTCTGC),1.9
5,CACTCCTCATGGACCGGTTTTCCCGGTAATCCGTATTTGAC (site CACTCCTCTGG),1.55
6,CACTCCTCATGGACCGGTTTTCCCGGTAATCCGTATTTGAC (site CACTCCTCTGT),3.09
7,CACTCGACATGGACCGGTTTTCCCGGTAATCCGTATTTGGG (site CAATCGACTCC),0.0326
8,CACTCGACATGGACCGGTTTTCCCGGTAATCCGTATTTGGG (site CACTCGACTCC),0.2
9,CACTCGACATGGACCGGTTTTCCCGGTAATCCGTATTTGGG (site CAGTCGACTCC),0
10,CACTCGACATGGACCGGTTTTCCCGGTAATCCGTATTTGGG (site CATTCGACTCC),0.0164
11,CACTGCCCATGGACCGGTTTTCCCGGTAATCCGTATTTGTT (site CACAGCCCTAA),0.0209
12,CACTGCCCATGGACCGGTTTTCCCGGTAATCCGTATTTGTT (site CACCGCCCTAA),0.287
13,CACTGCCCATGGACCGGTTTTCCCGGTAATCCGTATTTGTT (site CACGGCCCTAA),0.0106
14,CACTGCCCATGGACCGGTTTTCCCGGTAATCCGTATTTGTT (site CACTGCCCTAA),0.276
15,CACTGCTCATGGACCGGTTTTCCCGGTAATCCGTATTTGAA (site CAATGCTCTTT),0.0153
16,CACTGCTCATGGACCGGTTTTCCCGGTAATCCGTATTTGAA (site CACTGCTCTTT),2.09

row,Sequence,recombinant UMI read abundance (log10)
1,CACTGCTCATGGACCGGTTTTCCCGGTAATCCGTATTTGAA (site CAGTGCTCTTT),0.00554
2,CACTGCTCATGGACCGGTTTTCCCGGTAATCCGTATTTGAA (site CATTGCTCTTT),0.0128
3,CACTGGACATGGACCGGTTTTCCCGGTAATCCGTATTTGGT (site CACTGGACTAC),1.24
4,CAGAAAACATGGACCGGTTTTCCCGGTAATCCGTATTTGGG (site CAGAAAACTCC),0.991
5,CAGACATCATGGACCGGTTTTCCCGGTAATCCGTATTTGCT (site CAGACATCTAG),2.46
6,CAGACATCATGGACCGGTTTTCCCGGTAATCCGTATTTGCT (site CCGACATCTAG),1.06
7,CAGACATCATGGACCGGTTTTCCCGGTAATCCGTATTTGCT (site CGGACATCTAG),1.16
8,CAGACATCATGGACCGGTTTTCCCGGTAATCCGTATTTGCT (site CTGACATCTAG),1.42
9,CAGACCGCATGGACCGGTTTTCCCGGTAATCCGTATTTGAT (site CAGACCGCTAT),2.7
10,CAGACGCCATGGACCGGTTTTCCCGGTAATCCGTATTTGAC (site CAGACGCCTGT),1.91
11,CAGACGGCATGGACCGGTTTTCCCGGTAATCCGTATTTGGG (site CAGACGGCTCC),0.191
12,CAGAGAGCATGGACCGGTTTTCCCGGTAATCCGTATTTGTA (site CAGAGAGCTTA),2.94
13,CAGCACGCATGGACCGGTTTTCCCGGTAATCCGTATTTGGT (site CAGCACGCTAC),1.61
14,CAGCCCACATGGACCGGTTTTCCCGGTAATCCGTATTTGAA (site CAGCCCACTTT),1.15
15,CAGCTATCATGGACCGGTTTTCCCGGTAATCCGTATTTGTC (site CAGCTATCTGA),3.3
16,CAGGAGTCATGGACCGGTTTTCCCGGTAATCCGTATTTGCC (site CAGGAGTCTGG),3.4
